Data taken from ChEMBL document CHEMBL3596137, “N-Substituted pyrazole-3-carboxamides as inhibitors of human 15-lipoxygenase” (Bioorg Med Chem Lett, 2015).
Calls of active or inactive are those of the source. The rule behind the calls is not given here.

Assays:
[1] = target: T1, Prostaglandin G/H synthase 2 (Homo sapiens) (UniProt P35354); test: Inhibition of COX2 (unknown origin) using arachidonic acid as substrate at 10 uM
T1 sequence (whole entry): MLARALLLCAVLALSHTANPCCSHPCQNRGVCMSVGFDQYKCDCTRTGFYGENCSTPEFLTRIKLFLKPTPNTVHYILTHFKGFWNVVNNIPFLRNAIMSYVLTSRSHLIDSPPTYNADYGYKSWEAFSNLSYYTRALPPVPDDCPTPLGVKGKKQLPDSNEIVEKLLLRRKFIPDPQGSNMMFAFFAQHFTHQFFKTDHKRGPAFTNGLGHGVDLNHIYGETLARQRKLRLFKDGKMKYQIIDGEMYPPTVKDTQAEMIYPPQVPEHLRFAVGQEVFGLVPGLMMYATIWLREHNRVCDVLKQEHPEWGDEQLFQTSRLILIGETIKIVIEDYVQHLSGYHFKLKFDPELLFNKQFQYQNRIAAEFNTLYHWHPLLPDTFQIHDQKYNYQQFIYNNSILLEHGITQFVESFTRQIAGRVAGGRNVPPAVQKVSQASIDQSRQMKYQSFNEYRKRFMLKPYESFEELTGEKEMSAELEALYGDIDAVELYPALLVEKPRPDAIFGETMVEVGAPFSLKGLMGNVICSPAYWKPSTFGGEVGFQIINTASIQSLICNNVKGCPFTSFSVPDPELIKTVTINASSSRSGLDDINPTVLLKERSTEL

[2] = target: T2, Polyunsaturated fatty acid 5-lipoxygenase (Homo sapiens) (UniProt P09917); test: Inhibition of 5-LOX (unknown origin) using arachidonic acid as substrate at 10 uM by cell based assay
T2 sequence (whole entry): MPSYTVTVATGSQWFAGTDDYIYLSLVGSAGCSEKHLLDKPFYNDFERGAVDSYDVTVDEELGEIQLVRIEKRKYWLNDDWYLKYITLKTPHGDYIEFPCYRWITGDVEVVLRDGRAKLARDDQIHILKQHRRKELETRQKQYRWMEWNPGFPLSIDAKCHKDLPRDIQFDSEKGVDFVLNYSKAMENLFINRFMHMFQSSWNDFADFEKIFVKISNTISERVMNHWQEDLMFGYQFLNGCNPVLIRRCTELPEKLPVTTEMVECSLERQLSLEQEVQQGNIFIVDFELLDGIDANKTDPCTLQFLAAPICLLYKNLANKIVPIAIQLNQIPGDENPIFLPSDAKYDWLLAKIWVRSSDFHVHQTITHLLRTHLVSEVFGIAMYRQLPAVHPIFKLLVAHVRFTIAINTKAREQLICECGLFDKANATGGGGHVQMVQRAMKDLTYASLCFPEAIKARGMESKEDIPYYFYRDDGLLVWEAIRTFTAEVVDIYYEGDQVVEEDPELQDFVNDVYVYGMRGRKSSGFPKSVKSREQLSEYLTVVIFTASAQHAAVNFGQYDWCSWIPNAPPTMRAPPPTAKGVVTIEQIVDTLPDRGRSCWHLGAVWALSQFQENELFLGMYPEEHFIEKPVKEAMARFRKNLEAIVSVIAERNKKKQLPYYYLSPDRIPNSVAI

[3] = target: T3, Polyunsaturated fatty acid lipoxygenase ALOX12 (Homo sapiens) (UniProt P18054); test: Inhibition of 12-LOX (unknown origin) using arachidonic acid as substrate at 10 uM
T3 sequence (whole entry): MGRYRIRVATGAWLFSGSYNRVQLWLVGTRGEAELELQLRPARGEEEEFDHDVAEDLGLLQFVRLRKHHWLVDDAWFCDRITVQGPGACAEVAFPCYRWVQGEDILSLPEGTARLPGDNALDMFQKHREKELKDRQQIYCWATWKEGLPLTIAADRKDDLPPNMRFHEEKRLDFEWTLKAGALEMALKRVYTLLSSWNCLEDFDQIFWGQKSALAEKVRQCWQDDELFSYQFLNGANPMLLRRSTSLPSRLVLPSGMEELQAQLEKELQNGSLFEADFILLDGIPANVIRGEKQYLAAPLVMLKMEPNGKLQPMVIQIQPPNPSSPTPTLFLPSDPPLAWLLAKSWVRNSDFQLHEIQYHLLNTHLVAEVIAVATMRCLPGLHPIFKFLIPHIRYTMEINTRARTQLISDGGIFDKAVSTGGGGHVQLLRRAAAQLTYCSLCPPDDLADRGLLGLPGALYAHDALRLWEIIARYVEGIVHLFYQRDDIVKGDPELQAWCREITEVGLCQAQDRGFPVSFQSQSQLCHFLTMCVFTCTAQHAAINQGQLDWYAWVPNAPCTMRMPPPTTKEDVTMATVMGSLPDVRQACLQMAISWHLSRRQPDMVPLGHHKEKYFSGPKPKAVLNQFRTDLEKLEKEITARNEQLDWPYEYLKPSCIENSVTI

[4] = target: Prostaglandin G/H synthase 1 (Homo sapiens) (UniProt P23219); test: Inhibition of COX1 (unknown origin) using arachidonic acid as substrate at 10 uM
Chain of Prostaglandin G/H synthase 1 (Homo sapiens) (P23219 whole entry): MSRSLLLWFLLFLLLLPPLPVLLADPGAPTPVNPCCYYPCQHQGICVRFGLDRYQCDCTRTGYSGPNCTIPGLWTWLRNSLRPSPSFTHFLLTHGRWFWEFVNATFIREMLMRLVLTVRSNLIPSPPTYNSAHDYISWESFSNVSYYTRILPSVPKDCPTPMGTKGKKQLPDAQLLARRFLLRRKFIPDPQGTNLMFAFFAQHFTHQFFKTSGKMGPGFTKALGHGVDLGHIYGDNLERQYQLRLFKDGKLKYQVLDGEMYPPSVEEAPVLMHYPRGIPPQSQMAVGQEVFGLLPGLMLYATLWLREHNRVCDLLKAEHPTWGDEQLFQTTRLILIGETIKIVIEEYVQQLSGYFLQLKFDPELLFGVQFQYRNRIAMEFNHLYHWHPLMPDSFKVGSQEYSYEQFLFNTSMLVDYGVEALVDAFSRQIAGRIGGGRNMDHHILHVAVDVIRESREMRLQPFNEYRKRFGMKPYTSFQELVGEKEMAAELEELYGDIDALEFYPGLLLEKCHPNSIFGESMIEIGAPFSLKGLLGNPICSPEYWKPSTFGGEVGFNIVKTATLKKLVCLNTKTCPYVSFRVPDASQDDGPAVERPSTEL

[5] = target: T2, Polyunsaturated fatty acid 5-lipoxygenase (Homo sapiens); test: Inhibition of 5-LOX (unknown origin) using arachidonic acid as substrate at 10 uM
[6] = target: T4, Polyunsaturated fatty acid lipoxygenase ALOX15 (Homo sapiens, UniProt P16050); test: Inhibition of human 15-LOX-1 using arachidonic acid as substrate
T4 sequence (P16050 whole entry): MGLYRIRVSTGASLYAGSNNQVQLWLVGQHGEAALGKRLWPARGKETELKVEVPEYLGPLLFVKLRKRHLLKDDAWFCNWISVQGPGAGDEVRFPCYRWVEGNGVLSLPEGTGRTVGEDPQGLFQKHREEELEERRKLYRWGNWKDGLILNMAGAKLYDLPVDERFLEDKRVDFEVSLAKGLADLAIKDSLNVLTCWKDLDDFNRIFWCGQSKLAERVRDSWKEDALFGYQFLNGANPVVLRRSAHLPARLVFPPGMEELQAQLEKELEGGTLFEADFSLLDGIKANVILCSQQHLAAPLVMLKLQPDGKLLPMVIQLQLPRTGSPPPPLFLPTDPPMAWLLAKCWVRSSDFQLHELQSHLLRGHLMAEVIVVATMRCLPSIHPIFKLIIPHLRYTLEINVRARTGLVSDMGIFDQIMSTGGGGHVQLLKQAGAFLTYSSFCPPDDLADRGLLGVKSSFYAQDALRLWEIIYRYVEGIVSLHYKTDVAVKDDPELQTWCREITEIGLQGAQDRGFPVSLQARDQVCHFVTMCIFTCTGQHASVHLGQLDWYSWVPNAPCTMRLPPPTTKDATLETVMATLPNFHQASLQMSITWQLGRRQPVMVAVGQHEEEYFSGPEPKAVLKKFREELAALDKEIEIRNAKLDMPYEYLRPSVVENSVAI

[7] = target: T4, Polyunsaturated fatty acid lipoxygenase ALOX15; test: Inhibition of human 15-LOX-1 using arachidonic acid as substrate by cell based assay

Question: Which results are given for O=C(Nc1ccccc1Cl)c1ccn(C(=O)c2cccc(Cl)c2)n1?
Answer: inhibition [1]: inactive; inhibition [2]: 16%; inhibition [3]: 18%; inhibition [4]: 11%; inhibition [5]: 8%

Question: Which IC50 [6] does the source give for CCCCCCNC(=O)n1cc(CCCC)c(C(=O)Nc2ccc(F)cc2Cl)n1 here?
Answer: Not Active

Question: And the IC50 [7]?
Answer: Not Active

Question: Cn1cc(Cl)c(C(=O)Nc2ccc(F)cc2Cl)n1 was tested. Which IC50 [7] did it give?
Answer: Not Active

Question: For O=C(Nc1ccc(F)cc1Cl)c1ccn(C(=O)Cc2ccccc2)n1, which IC50 [7] is on record?
Answer: Not Active

Question: With CN(C)S(=O)(=O)n1ccc(C(=O)Nc2ccc(F)cc2Cl)n1 as the compound, how does the IC50 [7] read?
Answer: Not Active

Question: Which IC50 ([6]; read-out: IC50) does the source give for O=C(Nc1ccc(F)cc1Cl)c1ccn(S(=O)(=O)c2cccc(C(F)(F)F)c2)n1 here?
Answer: 1940 nM

Question: What about the IC50 ([7]; read-out: IC50) of the same compound?
Answer: 1060 nM
